Reference: patent US20250206722A1, “SMALL MOLECULE INHIBITORS OF TEA DOMAIN FAMILY MEMBERS” (The Scripps Research Institute, priority 2022, published 2025)

Columns and labels:
Type in all cases: cell-based
[1] = test system: transcriptional activity of TEADs; experiment: TEAD reporter assay (MCF7 TEAD-LUC reporter cells); details: Homo sapiens, 24 hours, BrightGlo luminescence
Procedure, shortened: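 MCF7 TEAD-LUC reporter cells were plated at 5,000/well and after 24 h treated with a 20-point 1:2 series from 20 μM final, in triplicate. Luciferase was read by BrightGlo luminescence after 24 h exposure at 37 °C.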

NCI-H226 cells = experiment: NCI-H226 proliferation assay (in house); details: Homo sapiens, 120 h, 5 days, Cell TiterGlo, 20-point 1:2 dilution from 20 μM
Procedure, shortened: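 Cells in RPMI 1640 + 10% FBS, 500 per well, dosed after 24 h with 20-point 1:2 dilutions from 20 μM (final), in triplicate. After 5 days at 37 °C, 5% CO2, viability read by CellTiter-Glo luminescence.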

IMR32 cells = experiment: IMR32 cytotoxicity assay; details: Homo sapiens, IMR-32, 72 h, 3 days, Cell TiterGlo
Procedure: IMR32 cells were obtained from American Type Culture Collection (ATCC, CCL-127) and cultured in DMEM (Corning, 10-013-CV) supplemented with 10% fetal bovine serum (Gibco, 10438-026) and 1% penicillin-streptomycin (Gibco, 15070063). Cells were trypsinized, resuspended in growth medium, and diluted to a concentrated of 20,000 cells/mL. 1,000 cells, 50 μL of cell suspension, per well were then plated in a white 384-well plate (Corning) and incubated at 37° C., 5% CO2. After 24 hours incubation, 100 nL of test compounds in DMSO, 20-point 1:2 dilution starting from 20 μM (final concentration) in triplicate, were transferred to each well using an Agilent Bravo instrument outfitted with a pintool head. Cells were incubated at 37° C., 5% CO2 for 3 days followed by the addition of 30 μL of Cell TiterGlo (Promega; diluted 1:6 in water) to each well and luminescence values recorded using an EnVision plate reader. […]

Row | SMILES | IC50 [1] | IC50 (NCI-H226 cells) | IC50 (IMR32 cells)
1 | N#CN1CCN(c2nccnc2Nc2ccc(C(F)(F)F)cc2)CC1 [Compound 2, 4-(3-{[4-(trifluoromethyl)phenyl]amino}pyrazin-2-yl)piperazine-1-carbonitrile] | 468 nM | 0.252 µM | > 20000 nM
2 | C=CC(=O)NC1CN(c2nccnc2Nc2ccc(C(F)(F)F)cc2)C1 [Example 3, N-(1-(3-((4-(trifluoromethyl)phenyl)amino)pyrazin-2-yl)azetidin-3-yl) acrylamide] | 3760 nM | 8.24 µM | 10000 nM
3 | C=CC(=O)N[C@H]1C[C@@H](Nc2nccnc2Nc2ccc(C(F)(F)F)cc2)C1 [Example 5, N-((ls,3s)-3-((3-((4-(trifluoromethyl)phenyl)amino)pyrazin-2-yl)amino)cyclobutyl) acrylamide] | 408 nM | 13.7 µM | > 20000 nM
4 | C=CC(=O)NC1CC2(C1)CN(c1nccnc1Nc1ccc(C(F)(F)F)cc1)C2 [Example 6, N-(2-(3-((4-(trifluoromethyl)phenyl)amino)pyrazin-2-yl)-2-azaspiro[3.3]heptan-6-yl)acrylamide] | > 20000 nM | > 10 µM | > 20000 nM
5 | C=CC(=O)N1CCC(Nc2nccnc2Nc2ccc(C(F)(F)F)cc2)C1 (stereo not drawn) [Example 8, 1-(3-((3-((4-(trifluoromethyl)phenyl)amino)pyrazin-2-yl)amino)pyrrolidin-1-yl)prop-2-en-1-one] | 49.3 nM | 8.48 µM | > 5000 nM
6 | C=CC(=O)NC1CCN(c2nccnc2Nc2ccc(C(F)(F)F)cc2)CC1 [Example 9, N-(1-(3-((4-(trifluoromethyl)phenyl)amino)pyrazin-2-yl)piperidin-4-yl)acrylamide] | 29.6 nM | > 10 µM | 10000 nM
7 | C=CC(=O)NCC1CCCN(c2nccnc2Nc2ccc(C(F)(F)F)cc2)C1 (stereo not drawn) [Example 10, N-((1-(3-((4-(trifluoromethyl)phenyl)amino)pyrazin-2-yl)piperidin-3-yl)methyl)acrylamide] | 11400 nM | > 14 µM | 10000 nM
8 | C=CC(=O)N1[C@@H]2CC[C@H]1CN(c1nccnc1Nc1ccc(C(F)(F)F)cc1)C2 [Example 12, 1-((1R,5S)-3-(3-((4-(trifluoromethyl)phenyl)amino)pyrazin-2-yl)-3,8-diazabicyclo[3.2.1]octan-8-yl)prop-2-en-1-one] | 491 nM | 1.16 µM | 10000 nM
9 | C=CC(=O)N1CC=C(c2nccnc2Nc2ccc(C(F)(F)F)cc2)CC1 [Example 25, 1-[4-(3-{[4-(trifluoromethyl)phenyl]amino}pyrazin-2-yl)-3,6-dihydro-2H-pyridin-1-yl]prop-2-en-1-one] | 2.1 nM | 0.006 µM | 15500 nM
10 | C=CC(=O)N1CCN(c2nccnc2-c2ccc(C(F)(F)F)cc2)CC1 [Example 28, 1-(4-(3-(4-(trifluoromethyl)phenyl)pyrazin-2-yl)piperazin-1-yl)prop-2-en-1-one] | 11.4 nM | 0.0904 µM | > 10000 nM
11 | C=CC(=O)N1CCN(c2nccnc2-c2cccc(C(F)(F)F)c2)CC1 [Example 29, 1-(4-(3-(3-(trifluoromethyl)phenyl)pyrazin-2-yl)piperazin-1-yl)prop-2-en-1-one] | > 20000 nM | > 20 µM | > 20000 nM
12 | C=CC(=O)N1CCN(c2nccnc2Nc2cccc(C(F)(F)F)c2)CC1 [Example 30, 1-(4-(3-((3-(trifluoromethyl)phenyl)amino)pyrazin-2-yl)piperazin-1-yl)prop-2-en-1-one] | 19.9 nM | > 1 µM | > 10000 nM
13 | C=CC(=O)N1CCN(c2nccnc2Nc2ccc(Cl)cc2)CC1 [Example 32, 1-(4-(3-((4-chlorophenyl)amino)pyrazin-2-yl)piperazin-1-yl)prop-2-en-1-one] | 4.67 nM | 0.059 µM | 20000 nM
14 | C=CC(=O)N1CCN(c2nccnc2Nc2ccc(F)cc2)CC1 [Example 33, 1-(4-(3-((4-fluorophenyl)amino)pyrazin-2-yl)piperazin-1-yl)prop-2-en-1-one] | 10.2 nM | 0.101 µM | > 20000 nM

Further lines, with some results ahead:

Row | IC50 [1] | IC50 (NCI-H226 cells) | SMILES | IC50 (IMR32 cells)
15 | 28.6 nM | 0.195 µM | C=CC(=O)NC1CCN(c2nccnc2Nc2ccc(C(F)(F)F)cc2)C1 (stereo not drawn) [Example 7, N-(1-(3-((4-(trifluoromethyl)phenyl)amino)pyrazin-2-yl)pyrrolidin-3-yl)acrylamide] | > 10000 nM
16 | 43.5 nM | 0.483 µM | C=CC(=O)N1CC2CC1CN2c1nccnc1Nc1ccc(C(F)(F)F)cc1 (stereo not drawn) [Example 11, 1-(5-(3-((4-(trifluoromethyl)phenyl)amino)pyrazin-2-yl)-2,5-diazabicyclo[2.2.1]heptan-2-yl)prop-2-en-1-one] | 1410 nM
17 | 3.48 nM | 0.0159 µM | C=CC(=O)N1CCN(c2nccnc2Nc2ccc(C(F)(F)F)cc2)C[C@H]1C [Example 13, (R)-1-(2-methyl-4-(3-((4-(trifluoromethyl)phenyl)amino)pyrazin-2-yl)piperazin-1-yl)prop-2-en-1-one] | > 10000 nM
18 | 2.94 nM | 0.0246 µM | C=CC(=O)N1CCN(c2nccnc2Nc2ccc(C(F)(F)F)cc2)C[C@@H]1C [Example 14, (S)-1-(2-methyl-4-(3-((4-(trifluoromethyl)phenyl)amino)pyrazin-2-yl)piperazin-1-yl)prop-2-en-1-one] | > 10000 nM
19 | 5000 nM | > 20 µM | C=CC(=O)N1CCN(c2nccnc2Nc2ccc(C(F)(F)F)cc2)C[C@@H]1CO [Example 15, (R)-1-(2-(hydroxymethyl)-4-(3-((4-(trifluoromethyl)phenyl)amino)pyrazin-2-yl)piperazin-1-yl)prop-2-en-1-one] | 10000 nM
20 | 2500 nM | > 20 µM | C=CC(=O)N1CCN(c2nccnc2Nc2ccc(C(F)(F)F)cc2)C[C@H]1CO [Example 16, (S)-1-(2-(hydroxymethyl)-4-(3-((4-(trifluoromethyl)phenyl)amino)pyrazin-2-yl)piperazin-1-yl)prop-2-en-1-one] | 5000 nM
21 | 43 nM | 0.32 µM | C=CC(=O)N1CCN(c2nccnc2Nc2ccc(C(F)(F)F)cc2)C[C@H]1CC#N [Example 21, (R)-2-(1-acryloyl-4-(3-((4-(trifluoromethyl)phenyl)amino)pyrazin-2-yl)piperazin-2-yl)acetonitrile] | > 10000 nM
22 | 25.9 nM | 0.27 µM | C=CC(=O)N1CCN(c2nccnc2Nc2ccc(C(F)(F)F)cc2)C[C@@H]1CC#N [Example 22, (S)-2-(1-acryloyl-4-(3-((4-(trifluoromethyl)phenyl)amino)pyrazin-2-yl)piperazin-2-yl)acetonitrile] | 15000 nM
23 | 41 nM | 0.0199 µM | C=CC(=O)N1CCN(c2nccnc2Nc2ccc(C(F)(F)F)cc2)C(C)C1 (stereo not drawn) [Example 24, 1-(3-methyl-4-(3-((4-(trifluoromethyl)phenyl)amino)pyrazin-2-yl)piperazin-1-yl)prop-2-en-1-one] | 2500 nM
24 | 29.7 nM | 0.164 µM | C=CC(=O)N1CCCN(c2nccnc2Nc2ccc(C(F)(F)F)cc2)CC1 [Example 27, 1-(4-(3-((4-(trifluoromethyl)phenyl)amino)pyrazin-2-yl)-1,4-diazepan-1-yl)prop-2-en-1-one] | 10000 nM
